# Data published in patent US11753399B2, “Therapeutic compounds” (Gilead Sciences, Inc., priority 2018, dated 2023).
# Assays:
# HIV-IIIb = assay: Test A: Antiviral Assay in MT4 Cells; type: cell-based, HIV-1; settings: Human immunodeficiency virus 1, MT4, 120 h, inhibition of virus-induced cell killing, MT-4 cells, HIV-IIIb, 5 days, values normalized to 100%; for inhibition at 0.01 µM: from dose response curve at 0.01 μM (10 nM), read-out: % inhibition at 0.01 μM; for inhibition at 0.2 µM: from dose response curve at 0.20 μM (200 nM), read-out: % inhibition at 0.20 μM
# Method: (§1) MT-4 cells were next mixed with HIV-IIIb at a multiplicity of infection (m.o.i.) of 0.003 for 1 hour, after which time 35 μL of virus/cell mixture (2000 cells) was immediately added to each well containing 40 μL of diluted compound. The plates were then incubated at 37° C. for 5 days. After 5 days of incubation, 25 μl of 2× concentrated CellTiter-Glo Reagent (catalog #G7571, Promega Biosciences, Inc., Madison, Wis.) was added to each well containing MT-4 cells. Cell lysis was carried out by incubating at room temperature for 10 min and then chemiluminescence was read.
# [1] = Test B: Cytotoxicity Assay (same protocol as Test A, uninfected cells); type: cell-based; settings: human, uninfected MT-4 cells, CellTiter-Glo
# Method: as §1, with “read. […] Compound cytotoxicity and the corresponding CC50 values was determined using the same protocol as described in the antiviral assay (Test A) except that uninfected cells were used.” for “read.”
SMILES,inhibition at 0.01 µM (HIV-IIIb) [%],inhibition at 0.2 µM (HIV-IIIb) [%],CC50 at 5 days [1] [µM]
CC1(S(=O)(=O)Nc2nn(CC(F)(F)F)c3c(-c4ccc(C#CC(C)(C)S(=O)(=O)C5CC5)nc4[C@H](Cc4cc(F)cc(F)c4)NC(=O)Cn4nc(C(F)(F)F)c5c4C(F)(F)[C@@H]4C[C@H]54)ccc(Cl)c23)CC1 [Example 29],100,100,> 57.1
CC(C)(C#Cc1ccc(-c2ccc(Cl)c3c(NS(C)(=O)=O)nn(C4COC4)c23)c([C@H](Cc2cc(F)cc(F)c2)NC(=O)Cn2nc(C(F)F)c3c2C(F)(F)[C@@H]2C[C@H]32)n1)S(=O)(=O)C1CC1 [Example 18],100,100,41.6
Cn1nc(NS(C)(=O)=O)c2c(Cl)ccc(-c3ccc(C#CC(C)(C)S(=O)(=O)C4CC4)nc3[C@H](Cc3cc(F)cc(F)c3)NC(=O)Cn3cnnn3)c21 [Example 45],96,97,20.1
Cn1nc(NS(C)(=O)=O)c2c(Cl)ccc(-c3ccc(C#CC(C)(C)S(=O)(=O)C4CC4)nc3[C@H](Cc3cc(F)cc(F)c3)NC(=O)Cn3ncc4ccccc43)c21 [Example 61],3,98,28.4
Cn1nc(NS(C)(=O)=O)c2c(Cl)ccc(-c3ccc(C#CC(C)(C)S(=O)(=O)C4CC4)nc3[C@H](Cc3cc(F)cc(F)c3)NC(=O)Cn3nc(C(F)F)c4c3C(F)(F)CCC4(F)F)c21 [Example 38],93,93,> 57.1
Cn1nc(NS(=O)(=O)C2(C)CC2)c2c(Cl)ccc(-c3ccc(C#CC(C)(C)S(=O)(=O)C4CC4)nc3[C@H](Cc3cc(F)cc(F)c3)NC(=O)Cn3nc(C(F)(F)F)c4c3C(F)(F)[C@@H]3C[C@H]43)c21 [Example 21],100,100,> 57.1
Cn1nc(NS(C)(=O)=O)c2c(Cl)ccc(-c3ccc(C#CC(C)(C)S(=O)(=O)C4CC4)nc3[C@H](Cc3cc(F)cc(F)c3)NC(=O)c3ccn[nH]3)c21 [Example 55],86,96,22.2
Cn1nc(NS(=O)(=O)C2CC2)c2c(Cl)ccc(-c3ccc(C#CC(C)(C)S(=O)(=O)C4CC4)nc3[C@H](Cc3cc(F)cc(F)c3)NC(=O)Cn3nc(C(F)F)c4c3C(F)(F)[C@@H]3C[C@H]43)c21 [Example 12],94,94,> 57.1
Cn1nc(NS(C)(=O)=O)c2c(Cl)ccc(-c3ccc(C#CC(C)(C)S(=O)(=O)C4CC4)nc3[C@H](Cc3cc(F)cc(F)c3)NC(=O)Cn3nc(C(F)(F)F)cc3C3CC3)c21 [Example 44],87,92,> 54.8
Cn1nc(NS(C)(=O)=O)c2c(Cl)ccc(-c3ccc(C#CC(C)(C)S(=O)(=O)C4CC4)nc3[C@H](Cc3cc(F)cc(F)c3)NC(=O)Cc3nnn[nH]3)c21 [Example 46],0,10,> 54.6
Cn1nc(NS(=O)(=O)C2CC2)c2c(Cl)ccc(-c3ccc(C#CC(C)(C)S(=O)(=O)C4CC4)nc3[C@H](Cc3cc(F)cc(F)c3)NC(=O)Cn3nc(C(F)F)c4c3C(F)(F)CCC4(F)F)c21 [Example 39],99,99,> 57.1
CC1(S(=O)(=O)Nc2nn(CC(F)F)c3c(-c4ccc(C#CC(C)(C)S(=O)(=O)C5CC5)nc4[C@H](Cc4cc(F)cc(F)c4)NC(=O)Cn4nc(C(F)(F)F)c5c4C(F)(F)[C@@H]4C[C@H]54)ccc(Cl)c23)CC1 [Example 22],94,94,> 57.1
CC(C)(C#Cc1ccc(-c2ccc(Cl)c3c(NS(=O)(=O)C4CC4)nn(CC(F)F)c23)c([C@H](Cc2cc(F)cc(F)c2)NC(=O)Cn2nc(C(F)F)c3c2C(F)(F)[C@@H]2C[C@H]32)n1)S(=O)(=O)C1CC1 [Example 16],98,98,> 57.1
Cn1nc(NS(C)(=O)=O)c2c(Cl)ccc(-c3ccc(C#CC(C)(C)S(=O)(=O)C4CC4)nc3[C@H](Cc3cc(F)cc(F)c3)NC(=O)Cn3cnnc3)c21 [Example 47],0,0,> 57.1
CC(C)(C#Cc1ccc(-c2ccc(Cl)c3c(NS(=O)(=O)CC4CC4)nn(CC(F)F)c23)c([C@H](Cc2cc(F)cc(F)c2)NC(=O)Cn2nc(C(F)(F)F)c3c2C(F)(F)[C@@H]2C[C@H]32)n1)S(=O)(=O)C1CC1 [Example 27],100,100,> 57.1
"Cn1nc(Nc2nnc(C(C)(C)O)o2)c2c(Cl)ccc(-c3ccc(C#CC(C)(C)S(=O)(=O)C4CC4)nc3[C@H](Cc3cc(F)cc(F)c3)NC(=O)Cn3nc(C(F)(F)F)c4c3C(F)(F)[C@@H]3C[C@H]43)c21 [Example 3F, N—((S)-1-(3-(4-chloro-3-((5-(2-hydroxypropan-2-yl)-1,3,4-oxadiazol-2-yl)amino)-1-methyl-1H-indazol-7-yl)-6-(3-(cyclopropylsulfonyl)-3-methylbut-1-yn-1-yl)pyridin-2-yl)-2-(3,5-difluorophenyl)ethyl)-2-((3bS,4aR)-5,5-difluoro-3-(trifluoromethyl)-3b,4,4a,5-tetrahydro-1H-cyclopropa[3,4]cyclopenta[1,2-c]pyrazol-1-yl)acetamide]",100,100,21.8
"CC1(S(=O)(=O)Nc2nn(CC(F)F)c3c(-c4ccc(C#CC(C)(C)S(=O)(=O)C5CC5)nc4[C@H](Cc4cc(F)cc(F)c4)NC(=O)Cn4nc(C(F)F)c5c4C(F)(F)[C@@H]4C[C@H]54)ccc(Cl)c23)CC1 [Example 2F, N—((S)-1-(3-(4-chloro-1-(2,2-difluoroethyl)-3-((1-methylcyclopropane)-1-sulfonamido)-1H-indazol-7-yl)-6-(3-(cyclopropylsulfonyl)-3-methylbut-1-yn-1-yl)pyridin-2-yl)-2-(3,5-difluorophenyl)ethyl)-2-((3bS,4aR)-3-(difluoromethyl)-5,5-difluoro-3b,4,4a,5-tetrahydro-1H-cyclopropa[3,4]cyclopenta[1,2-c]pyrazol-1-yl)acetamide]",100,100,> 57.1
CC(C)(C#Cc1ccc(-c2ccc(Cl)c3c(NS(=O)(=O)C4CC4)nn(CC(F)(F)F)c23)c([C@H](Cc2cc(F)cc(F)c2)NC(=O)Cn2nc(C(F)(F)F)c3c2C(F)(F)[C@@H]2C[C@H]32)n1)S(=O)(=O)C1CC1 [Example 36],93,93,> 57.1
Cn1nc(NS(C)(=O)=O)c2c(Cl)ccc(-c3ccc(C#CC(C)(C)S(=O)(=O)C4CC4)nc3[C@H](Cc3cc(F)cc(F)c3)NC(=O)Cn3cnc4ccccc43)c21 [Example 62],56,93,30.7
Cn1nc(NS(C)(=O)=O)c2c(Cl)ccc(-c3ccc(C#CC(C)(C)S(=O)(=O)C4CC4)nc3[C@H](Cc3cc(F)cc(F)c3)NC(=O)Cc3nc4ccccc4[nH]3)c21 [Example 54],18,99,29.8
CC(C)(C#Cc1ccc(-c2ccc(Cl)c3c(NS(C)(=O)=O)nn(CC(F)(F)F)c23)c([C@H](Cc2cc(F)cc(F)c2)NC(=O)Cn2nc(C(F)F)c3c2C(F)(F)[C@@H]2C[C@H]32)n1)S(=O)(=O)C1CC1 [Example 17],98,98,> 24
CC(C)(C#Cc1ccc(-c2ccc(Cl)c3c(NS(C)(=O)=O)nn(C4COC4)c23)c([C@H](Cc2cc(F)cc(F)c2)NC(=O)Cn2nc(C(F)(F)F)c3c2C(F)(F)[C@@H]2C[C@H]32)n1)S(=O)(=O)C1CC1 [Example 19],97,97,> 57.1
CC1(S(=O)(=O)Nc2nn(CC(F)(F)F)c3c(-c4ccc(C#CC(C)(C)S(=O)(=O)C5CC5)nc4[C@H](Cc4cc(F)cc(F)c4)NC(=O)Cn4nc(C(F)F)c5c4C(F)(F)CCC5(F)F)ccc(Cl)c23)CC1 [Example 31],97,98,> 57.1
CC(C)(C#Cc1ccc(-c2ccc(Cl)c3c(NS(=O)(=O)C4CC4)nn(CC(F)F)c23)c([C@H](Cc2cc(F)cc(F)c2)NC(=O)Cn2nc(C(F)(F)F)c3c2C(F)(F)[C@@H]2C[C@H]32)n1)S(=O)(=O)C1CC1 [Example 23],100,100,> 57.1
CC(C)(C#Cc1ccc(-c2ccc(Cl)c3c(NS(C)(=O)=O)nn(CC(F)F)c23)c([C@H](Cc2cc(F)cc(F)c2)NC(=O)Cn2nc(C(F)F)c3c2C(F)(F)CCC3(F)F)n1)S(=O)(=O)C1CC1 [Example 42],89,89,> 57.1
